Results as given in patent US20260373248A1, “DEGRADABLE PEPTOIDS” (Medici Therapeutics, Inc., priority 2023, published 2026).
Starred links: 1 amine or outer side, 2 acyl side, 3 side chain; linkers in the order of their positions; H or OH if unused. Non-standard residues stand in square brackets, D forms with d. Residues, ends and D or L forms follow the SMILES beside them. *: point of attachment. N(2-decanoyloxyethyl)Gly = CCCCCCCCCC(=O)OCCNCC(=O)O; Gly(N-(CH2)3O-octanoyl) = CCCCCCCC(=O)OCCCNCC(=O)O; Gly(N-3-morpholinopropyl) = O=C(O)CNCCCN1CCOCC1; N(2-ethylhexyl)Gly = CCCCC(CC)CNCC(=O)O; X1 = CCCCC(CC)CSSCCN(CC(=O)[*:2])[*:1]; X3 = CCCCCCCCSSCCN(CC(=O)[*:2])[*:1]; N(CH(CH2OH)2)Gly = O=C(O)CNC(CO)CO; N(octyl)Gly = CCCCCCCCNCC(=O)O; NDecylGly = CCCCCCCCCCNCC(=O)O; For = O=C*

Key:
[1] = tested on: mRNA; experiment: mRNA encapsulation (modified Quant-iT RiboGreen assay); assay type: physicochemical; settings: RiboGreen, without vs with Triton X-100
Protocol: The mRNA concentration and the percentage of encapsulated mRNA were determined using fluorescent-based Quant-iT RiboGreen RNA Reagent Kit (Life Technologies, Waltham, MA) as described previously. To determine the mRNA concentration, PNPs was incubated with […] for 10 min to release entrapped mRNA, followed by addition of RiboGreen RNA reagent. The fluorescence intensity of mRNA-RiboGreen reagent complex (excitation at 485 nm and emission at 530 nm) was detected using a microplate reader. The ratio of fluorescence without and with Triton X-100 were used to calculate the percentage of encapsulated mRNA.
(§1) Degradable peptoids described herein were formulated as various formulations described in Table 3 according to the procedure described in Example 2. Particle size was characterized as described in Example 2, and […] encapsulation of mRNA was determined as described in Example 3.

[2] = Delivery vehicle size and polydispersity by dynamic light scattering; assay type: physicochemical; settings: DLS in PBS; peptoid:DSPC:Cholesterol:DMG-PEG2000 weight ratio 20:1.79:7.16:1.84, mRNA
Protocol: Delivery vehicles were formulated by rapid microfluidic mixing using a high throughput microfluidic system. Briefly, ethanol solutions containing peptoid, DSPC, Cholesterol, DMG-PEG2000 at weight ratio of 20:1.79:7.16:1.84, were mixed with 10 mM sodium citrate buffer (pH 5.0) containing synthesized mRNA at a ratio of 1:3 by volume. Peptoid based LNPs were subsequently dialyzed against 1-2 liters of tris-sucrose buffer (TS7, pH 7.4) overnight at 4 °C. Delivery vehicle size and polydispersity (PDI) was measured by dynamic light scattering in PBS.
as §1

[3] = tested on: firefly luciferase; experiment: In vivo firefly luciferase expression after intravenous injection of fLuc mRNA delivery vehicles (IVIS imaging); design: species or system female Balb/c mice; settings: mice, 2.5 ug fLuc mRNA intravenously, 6 hours post-injection
Protocol: (§2) All animal studies were conducted under accreditation by the California State Department of Public Health and under supervision of IACUC and Veterinarian Supervision. For imaging studies, female Balb/c mice (6-8 weeks old) were obtained and acclimatized for a minimum of 3 days prior to experiments. The animals were maintained on a 12 hour light cycle in a temperature and humidity controlled room. A daily health check was performed as well as food and water check. For dosing, mice were injected with 2.5 ug fLuc mRNA-containing Nutshells intravenously in 100 μL total injection value. At 6 hours post-injection, mice were anesthetized with isoflurane, injected IP with 30 mg/mL D-luciferin at a dose of 10 μL per gram bodyweight intraperitoneally. Imaging was done 10 minutes post D-luciferin injection using an IVIS Spectrum Imaging System (Caliper Life Sciences). Immediately after in vivo imaging, mice were terminally bled by cardiac puncture and euthanized. The organs of interest were harvested, placed in black 24-well plates, and imaged. Living Image software (Perkin Elmer) was used to quantify the total photon flux in regions of interest.
Luciferase expression in these formulations was also determined as described in Example 4.

[4] = tested on: luciferase; experiment: Luciferase expression after local (intramuscular or subcutaneous) administration of mRNA; assay type: in vivo; settings: mRNA 0.01 mpk, 6 hours; for IM Flux: intramuscular; for SC Flux: subcutaneous
Protocol: as §2
Aminolipidated peptoids were also effective for local administration of mRNA through subcutaneous (S.C.) or intramuscular (I.M.) routes of administration. For these examples, mRNA was administered at a dose of 0.1 mpk for intratomoral, or 0.01 mpk for subcutaneous and intramuscular administration, and the resulting bioluminescence quantified after 6 hours according to a similar procedure as described in Example 4.

| Structure (SMILES) | mean percent encapsulation of RNA [1] [%] | PDI [2] | Particle Size [2] [nm] | Total Flux [3] [p/s] | IM Flux [4] [p/s] | SC Flux [4] [p/s] |
| --- | --- | --- | --- | --- | --- | --- |
| CCCCCCCCCCN(CC(=O)N(CCSSCC(CC)CCCC)CC(=O)N(CCCOC(=O)CCCCCCC)CC(N)=O)C(=O)CN(CCSSCC(CC)CCCC)C(=O)CN(CCCOC(=O)CCCCCCC)C(=O)CN(CC(CC)CCCC)C(=O)CNC(CO)CO (stereo not drawn) [Compound 130] (H-[N(CH(CH2OH)2)Gly][N(2-ethylhexyl)Gly][Gly(N-(CH2)3O-octanoyl)][X1][NDecylGly][X1][Gly(N-(CH2)3O-octanoyl)]-NH2) | 86.0 | 0.086 | 75.5 | 4.45E+09 | 2.72E+08 | 1.92E+08 |
| CCCCCCCCN(C=O)CC(=O)N(CCCOC(=O)CCCCCCC)CC(=O)N(CCSSCC(CC)CCCC)CC(=O)N(CCCN1CCOCC1)CC(=O)N(CCSSCC(CC)CCCC)CC(=O)N(CCCOC(=O)CCCCCCC)CC(=O)N(CCCCCCCC)CC(N)=O (stereo not drawn) [Compound 132] (For-[N(octyl)Gly][Gly(N-(CH2)3O-octanoyl)][X1][Gly(N-3-morpholinopropyl)][X1][Gly(N-(CH2)3O-octanoyl)][N(octyl)Gly]-NH2) | 74.2 | 0.090 | 86.0 | 1.31E+10 | 4.62E+08 | 6.94E+08 |
| CCCCCCCC(=O)OCCCN(C=O)CC(=O)N(CCCOC(=O)CCCCCCC)CC(=O)N(CCSSCC(CC)CCCC)CC(=O)N(CCCN1CCOCC1)CC(=O)N(CCSSCC(CC)CCCC)CC(=O)N(CCCOC(=O)CCCCCCC)CC(=O)N(CCCOC(=O)CCCCCCC)CC(N)=O (stereo not drawn) [Compound 133] (For-[Gly(N-(CH2)3O-octanoyl)][Gly(N-(CH2)3O-octanoyl)][X1][Gly(N-3-morpholinopropyl)][X1][Gly(N-(CH2)3O-octanoyl)][Gly(N-(CH2)3O-octanoyl)]-NH2) | 86.7 | 0.083 | 76.9 | 2.80E+08 | 1.08E+07 | 3.73E+07 |

More lines, main results first:

| mean percent encapsulation of RNA [1] [%] | PDI [2] | Particle Size [2] [nm] | Structure (SMILES) | Total Flux [3] [p/s] | IM Flux [4] [p/s] | SC Flux [4] [p/s] |
| --- | --- | --- | --- | --- | --- | --- |
| 83.7 | 0.062 | 73.8 | CCCCCCCCSSCCN(CC(=O)N(CCCN1CCOCC1)CC(=O)N(CCSSCCCCCCCC)CC(=O)N(CCCOC(=O)CCCCCCC)CC(=O)N(CCCOC(=O)CCCCCCC)CC(N)=O)C(=O)CN(CCCOC(=O)CCCCCCC)C(=O)CN(C=O)CCCOC(=O)CCCCCCC [Compound 134] (For-[Gly(N-(CH2)3O-octanoyl)][Gly(N-(CH2)3O-octanoyl)][X3][Gly(N-3-morpholinopropyl)][X3][Gly(N-(CH2)3O-octanoyl)][Gly(N-(CH2)3O-octanoyl)]-NH2) | 5.63E+08 | 6.40E+07 | 1.60E+08 |
| 91.4 | 0.158 | 59.2 | CCCCCCCCCC(=O)OCCN(CC(=O)N(CCOC(=O)CCCCCCCCC)CC(=O)N(CCSSCC(CC)CCCC)CC(=O)N(CCOC(=O)CCCCCCCCC)CC(=O)N(CCOC(=O)CCCCCCCCC)CC(=O)N(CCSSCC(CC)CCCC)CC(N)=O)C(=O)CNC(CO)CO (stereo not drawn) [Compound 135] (H-[N(CH(CH2OH)2)Gly][N(2-decanoyloxyethyl)Gly][N(2-decanoyloxyethyl)Gly][X1][N(2-decanoyloxyethyl)Gly][N(2-decanoyloxyethyl)Gly][X1]-NH2) | 8.92E+08 | 3.49E+08 | 5.56E+08 |
